{"source": "patent US5710150A", "about": "“Benzazepine derivative, pharmaceutical composition thereof, and intermediate thereof” (Yamanouchi Pharmaceutical Co., Ltd., priority 1993, dated 1998)", "key": {"[1]": {"experiment": "Water diuresis action in conscious rats (oral administration)", "format": "in vivo, male Wister rats", "details": "3 mg/kg oral", "experimental": "Each compound to be tested was suspended in 0.5% methylcellulose solution and orally administered in a dose of 3 mg/kg to male Wister rats (body weight, 270 to 300 g) which have been subjected to fasting with no water for 16 to 20 hours. Using a metabolic cage, urine samples were collected just after the administration of each test sample until 4 hours thereafter to measure the amount of urine."}, "[2]": {"biological_target": "arginine vasopressin V2 receptor (Oryctolagus cuniculus, UniProt G1TA00)", "sequence (G1TA00 78-446)": "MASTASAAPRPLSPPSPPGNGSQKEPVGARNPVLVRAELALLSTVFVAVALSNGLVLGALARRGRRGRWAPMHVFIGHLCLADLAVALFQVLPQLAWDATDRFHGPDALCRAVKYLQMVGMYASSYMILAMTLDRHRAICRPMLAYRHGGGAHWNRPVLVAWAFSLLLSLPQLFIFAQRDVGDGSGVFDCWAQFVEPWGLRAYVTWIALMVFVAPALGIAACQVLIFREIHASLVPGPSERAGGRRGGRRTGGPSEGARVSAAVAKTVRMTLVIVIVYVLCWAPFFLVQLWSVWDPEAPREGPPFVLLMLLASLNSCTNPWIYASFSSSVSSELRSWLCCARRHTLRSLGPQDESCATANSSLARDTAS", "experiment": "V2 receptor binding assay ([3H]-Arg-vasopressin, rabbit renal medulla membrane)"}, "[3]": {"biological_target": "T1, arginine vasopressin V1 receptor (Rattus norvegicus, UniProt P30560)", "T1 construct": "A rat liver membrane sample was prepared; from tissue; host or cells: rat liver membranes", "T1 sequence (P30560 whole entry)": "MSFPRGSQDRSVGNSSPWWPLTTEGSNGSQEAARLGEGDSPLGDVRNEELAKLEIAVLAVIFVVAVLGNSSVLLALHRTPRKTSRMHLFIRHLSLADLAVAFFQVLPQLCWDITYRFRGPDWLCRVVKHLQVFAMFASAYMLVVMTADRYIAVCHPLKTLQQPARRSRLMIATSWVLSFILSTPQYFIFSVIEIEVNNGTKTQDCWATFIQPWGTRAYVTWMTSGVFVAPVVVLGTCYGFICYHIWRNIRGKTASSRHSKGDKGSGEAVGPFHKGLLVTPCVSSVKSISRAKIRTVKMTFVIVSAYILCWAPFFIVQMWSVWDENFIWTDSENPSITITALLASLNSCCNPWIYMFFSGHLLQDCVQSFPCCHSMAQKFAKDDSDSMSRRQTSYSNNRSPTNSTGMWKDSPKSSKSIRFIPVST", "experiment": "V1 receptor binding assay ([3H]-Arg-vasopressin, rat liver membrane)", "experimental": "(1) V1 receptor binding assay\nA rat liver membrane sample was prepared in accordance with the method of Nakamura et al. (J. Biol. Chem., 258, 9283 (1983)), and [^3 H]-Arg-vasopressin (2 nM, specific activity=75.8 Ci/mmol), 70 μg of the membrane sample and each drug to be tested (10^-8 to 10^-4 M) were incubated at 30° C. for 30 minutes in 250 μl of 100 mM Tris-HCl buffer (pH=8.0) containing 5 mM of magnesium chloride, 1 mM of ethylenediaminetetraacetic acid (EDTA) and 0.1% of bovine serum albumin (BSA). Thereafter, the incubation solution was sucked off using a cell harvester and free ligand and excess buffer were removed by passing the reaction mixture through a glass filter (GF/B), thereby trapping receptor-bound labeled ligand on the glass filter. The glass filter was taken out, thoroughly dried and then mixed with a liquid scintillation cocktail, and the amount of the membrane-bound [^3 H]-vasopressin was measured using a liquid scintillation counter to calculate the inhibition ratio by the following formula. [formula] C1 : amount of [^3 H]-vasopressin bound to the membrane in the coexistence of known amount of each drug to be tested and [^3 H]-vasopressin\nC0 : amount of [^3 H]-vasopressin bound to the membrane when the drug to be tested was not added\nB1 : amount of [^3 H]-vasopressin bound to the membrane in the presence of excess vasopressin (10^-6 M)\n[formula] [L]: concentration of radioactive ligand KD: dissociation constant calculated from Scatchard plot\nNegative logarithm of the thus calculated Ki value was used as pKi value."}, "V1": {"system": "V1", "experiment": "V1 antagonism in conscious rats (oral administration), AVP-induced diastolic blood pressure increase", "format": "in vivo, male Wister rats", "details": "1 mg/kg oral, 30 minutes to 6 hours after administration, AVP 30 mU/kg i.v."}, "[4]": {"details": "compared with OPC-31260 and OPC-21268"}}}
{"smiles": "Cc1ccccc1C(=O)Nc1ccc(C(=O)N2CCCC(N(C)C)c3ccccc32)cc1", "note": "(stereo not shown) [Comparative compound (1), OPC-31260]", "values": [{"measurement": "amount of urine compared with solvent-administered group, 2 to 4 hours (in words)", "setting": "[1]; 2 hours to 4 hours after administration", "value": "almost the same as that in the solvent-administered group"}, {"measurement": "amount of urine relative to solvent-administered group, 0 to 2 hours", "setting": "[1]; just after administration to 2 hours later", "value": 11, "unit": "times"}]}
{"smiles": "CN1CCN(C(=O)/C=C2/c3ccccc3N(C(=O)c3ccc(NC(=O)c4ccccc4-c4ccccc4)cc3)CCC2(F)F)CC1.Cl", "note": "[Example 11, (Z)-4'-[[4,4-difluoro-5-(4-methyl-1-piperazinyl)carbonylmethylene-2,3,4,5-tetrahydro-1H-1-benzazepin-1-yl]carbonyl]-2-phenylbenzanilide hydrochloride]", "values": [{"measurement": "antagonism on V2 receptor (in words)", "setting": "[2]; [4]", "value": "excellent antagonisms on both V1 and V2 receptors"}, {"measurement": "Binding activity on arginine vasopressin V2 receptor (pKi)", "setting": "[2]; rabbit renal medulla membrane, [3H]-Arg-vasopressin 2 nM", "value": 9.06}, {"measurement": "antagonism on V1 receptor (in words)", "setting": "[3]; [4]", "value": "excellent antagonisms on both V1 and V2 receptors"}, {"measurement": "Ki", "setting": "[3]; rat liver membrane, [3H]-Arg-vasopressin 2 nM, 30° C., 30 minutes, pH 8.0, read-out: Binding activity on arginine vasopressin V1 receptor (pKi) (converted)", "value": 1.29, "unit": "nM"}, {"measurement": "Pressure increment by AVP (before compound = 100%)", "setting": "V1", "value": "≤ 50", "unit": "%"}]}
